The values below come from ChEMBL document CHEMBL3745713, “Bromotyrosine-derived metabolites from an Indonesian marine sponge in the family Aplysinellidae (Order Verongiida)” (Bioorg Med Chem Lett, 2016).

Series [1] concerns A549. Description: Cytotoxicity against human A549 cells assessed as cell growth at 20 uM measured at 72 hrs by CyQuant proliferation assay relative to control. The class given is functional. The settings on record: A549, 72 h, read-out: Activity.
Series [2] can be described thus: Cytotoxicity against human A2780S/CP5 cells assessed as cell growth at 20 uM measured at 72 hrs by CyQuant proliferation assay relative to control. The class given is functional. The settings on record: A2780S/CP5, 72 h, read-out: Activity.
Series [3] is described as follows: Cytotoxicity against mouse NIH/3T3 cells assessed as cell growth at 20 uM measured at 72 hrs by CyQuant proliferation assay relative to control. The class given is cell-based. The settings on record: nih3t3, 72 h.
Series [4] can be described thus: Cytotoxicity against human A2780S cells assessed as cell growth at 20 uM measured at 72 hrs by CyQuant proliferation assay relative to control. The class given is functional. The settings on record: A2780, 72 h, read-out: Activity.
The test system of series [5] is MCF7. Description: Cytotoxicity against human MCF7 cells assessed as cell growth at 20 uM measured at 72 hrs by CyQuant proliferation assay relative to control. The class given is functional. The settings on record: MCF7, 72 h, read-out: Activity.
Series [6] in a line: Cytotoxicity against human U251MG cells assessed as cell growth at 20 uM measured at 72 hrs by CyQuant proliferation assay relative to control. The class given is functional. The settings on record: U-251, 72 h, read-out: Activity.
Series [7] can be described thus: Cytotoxicity against human A2780S cells assessed as cell growth at 25 uM measured at 72 hrs by CyQuant proliferation assay relative to control. The class given is functional. The settings on record: A2780, 72 h, read-out: Activity.
For series [8], the system named is MCF7. Nature of the series: Cytotoxicity against human MCF7 cells assessed as cell growth at 25 uM measured at 72 hrs by CyQuant proliferation assay relative to control. The class given is functional. The settings on record: MCF7, 72 h, read-out: Activity.
The nature of series [9]: Cytotoxicity against human A2780S/CP5 cells assessed as cell growth at 25 uM measured at 72 hrs by CyQuant proliferation assay relative to control. The settings on record: A2780S/CP5, 72 h, read-out: Activity. The class given is functional.
Series [10] has as its system A549. Nature of the series: Cytotoxicity against human A549 cells assessed as cell growth at 25 uM measured at 72 hrs by CyQuant proliferation assay relative to control. The settings on record: A549, 72 h, read-out: Activity. The class given is functional.
Series [11] is described as follows: Cytotoxicity against mouse NIH/3T3 cells assessed as cell growth at 25 uM measured at 72 hrs by CyQuant proliferation assay relative to control. The class given is cell-based, NIH3T3. The settings on record: read-out: Activity.
The nature of series [12]: Cytotoxicity against human U251MG cells assessed as cell growth at 25 uM measured at 72 hrs by CyQuant proliferation assay relative to control. The settings on record: U-251, 72 h, read-out: Activity. The class given is functional.

With `COc1cc([C@@H]2c3cc4c(cc3[C@@H](O[C@@H]3O[C@@H]5CO[C@@H](C)O[C@H]5[C@H](O)[C@H]3O)[C@H]3COC(=O)[C@H]23)OCO4)cc(OC)c1O` [ETOPOSIDE], the growth at 20 µM in the series on A549 [1] was found to be 49%; in series [2], 33%; in series [4], 35%; in the series with MCF7 [5], 46%; in series [6], 21%. Further, the Activity in series [3] came out at 46%.
For `O=C(CCCCCCC(=O)Nc1ccccc1)NO` [VORINOSTAT], the growth at 25 µM in series [7] was 23%; in the series with MCF7 [8], 52%; in series [9], 18%; with A549 [10] it was 51%; in series [12], 20%. Also, in series [11], the viability at 72 h, 25 µM worked out at 46%.
